The subject of data set [1] is human skin fibroblasts. The data set is described as follows: SA-β-gal senescence assay during reprogramming. It counts as cell-based. Conditions: 10 days after induction of reprogramming, compared to untreated control (OSKM alone) (FIG. 17).
The test system of data set [2] is human skin fibroblasts. The data set is described as follows: Cell growth (total number of cells) during reprogramming culture. Format: cell-based. An excerpt: In still another example of the present invention, whether the novel compound RSC-133 has the effect of promoting the growth and proliferation of cells in a culture process for inducing reprogramming was examined by measuring the total number of cells at various time points (FIG. 11). […] In addition, a change in the proliferation of cells during a culture process for inducing reprogramming was examined by a BrdU assay.
FIG. 11 is a graph showing the effect of RSC-133 on cell growth during a reprogramming process. The results were obtained in the same manner as those in FIG. 10. The values shown on the graph are mean values. The data ate are expressed as mean±SD (n=3).
FIG. 12 is a graph showing the results of examining the effect of RSC-133 on the growth of human skin fibroblasts or human skin fibroblasts infected with a reprogramming factor (OSKM) virus. The values shown on the graph are mean values. The data are mean±SD (n=3).
In addition, the growth rate of cells is associated with the self-renewal ability of embryonic stem cells. Thus, whether the novel compound RSC-133 can promote cell growth during reprogramming was examined. As a result, it could be seen that when reprogramming was induced while the cells were treated with RSC-133, the growth rate of the cells increased by about 1.7 times compared to that of the control group (FIG. 11). […]

Data set [3] has as its target T1, DNA methyl transferase 1 (DNMT1) (Homo sapiens, UniProt P26358).
T1 construct: endogenous in cells; host or cells: human skin (foreskin) fibroblasts (hFF, ATCC CRL-2097) transduced with OSKM retrovirus
The data set is described as follows: DNMT1 activity during reprogramming. Format: cell-based. Conditions: 10 days after induction of reprogramming, compared to untreated control (OSKM alone) (FIG. 20). An excerpt:
For comparison, the activity of DNMT1 in the absence of RSC-133 was set at 100%.
RSC133 regulates the activities of epigenetic regulators such as DNA methyltransferase (DNMT) and histone deacetylase (HDAC). At 10 days after induction of reprogramming by RSC133, the activity of DNMT1 was reduced by about 38% compared to that in an untreated control group (OSKM alone) (FIG. 20). Epigenetic chromatin remolding by DNA methylation and/or histone modification plays an important in a wide range of transcriptional regulation in the reprogramming process. […] The increased level of H3K9 histone acetylation (ace) is particularly associated with the restoration of pluripotency and reprogramming ability. It is known that DNA methylation by DNMT1 has a close connection with the change in chromatin status caused by HDAC activity.

Data set [4] deals with human skin fibroblasts. Nature of the data set: MTT cytotoxicity assay. Format: cell-based. The conditions noted are these: concentration up to 50 μM, 72 hours after treatment (FIG. 9). The procedure:
FIG. 9 is a graph showing the results of analyzing the effect of RSC-133 on the cytotoxicity of human skin fibroblasts. At 72 hours after treatment with various concentrations of RSC-133, cytotoxicity was measured by MTT (3-(4,5-dimethylthiazol-2-yl)-2,5-diphenyltetrazolium bromide (yellow tetrazole) assays. The values shown on the graph are mean values. The data are expressed as mean±SD (n=3).

Another data set deals with H3K9ace. Nature of the data set: H3K9 acetylation during reprogramming (immunocytochemistry, Western blot). It counts as cell-based, human. How it is done:
The left panel is a set of photographs showing the results obtained by inducing the reprogramming of human skin fibroblasts, culturing the cells for 10 days in the presence or absence of RSC-133, and then analyzing the cells by immunocytochemistry using monoclonal antibodies for H3K9ace and an undifferentiation marker (Nanog) (scale bar=200 μm). […] H3 protein was used as an internal control.
For immunostaining, cells were seeded on Matrigel-coated 4-well Lab-Tek chamber slides (Nunc, Naperville, Ill.) and cultured for 5 days under the indicated conditions. The cells were fixed in 4% paraformaldehyde at room temperature for 15 minutes, and then washed with PBS/0.2% BSA. Next, the cells were passed through PBS/0.2% BSA/0.1% Triton X-100 for 15 minutes, and then incubated with 4% normal donkey serum (Molecular Probes, Eugene, Oreg., USA) in PBS/0.2% BSA at room temperature for 1 hour. The cells were diluted with PBS/0.2% BSA, and then reacted with primary antibody at 4° C. for 2 hours. After washing, the cells were reacted with FITC- or Alexa594-conjugated secondary antibody (Invitrogen) in PBS/0.2% BSA at room temperature for 1 hour. The cells were counter-stained with 10 μg/ml DAPI.
Most of various low-molecular-weight compounds known to be involved in the reprogramming process are involved genome methylation patterns, histone acetylation patterns or major signaling mechanisms. […]

In another data set the test system is total HDAC enzymes. Nature of the data set: Activity of total HDAC enzymes during reprogramming. Format: cell-based, human. Conditions: during reprogramming (FIG. 19 left). The procedure: The values shown on the graph are mean values. The data are expressed as mean±SD (n=3) (*P<0.01, **P<0.005, by t-test).
Next, whether the above-described results were results of the inhibition of HDAC enzyme by RSC-133 during reprogramming of human skin fibroblasts was examined. […] According to the experimental method shown in FIG. 21, the expression levels of HDAC-family proteins were measured, and as a result, it could be seen that the expression level of HDAC1 in the test group treated with RSC-133 was inhibited at 10 days after treatment with RSC-133 compared to that of the control group (the light panel of FIG. 19 and FIG. 21). It was reported that HDAC1 can occupy the Oct4, Sox2, Klf4 and c-Myc gene loci in embryonic stem cells and that the expression of pluripotency-specific marker genes in HDAC1-deleted embryonic stem cells is increased. Thus, it is believed that RSC-133 can inhibit the function of HDAC1 and increase the H3K9ace level to stimulate the reprogramming process.

The subject of data set [5] is human skin fibroblasts (hFFs). The data set is described as follows: Reprogramming of human skin fibroblasts, AP-positive colony count. It counts as cell-based.

Structures are written as SMILES.

T1 sequence (P26358 whole entry): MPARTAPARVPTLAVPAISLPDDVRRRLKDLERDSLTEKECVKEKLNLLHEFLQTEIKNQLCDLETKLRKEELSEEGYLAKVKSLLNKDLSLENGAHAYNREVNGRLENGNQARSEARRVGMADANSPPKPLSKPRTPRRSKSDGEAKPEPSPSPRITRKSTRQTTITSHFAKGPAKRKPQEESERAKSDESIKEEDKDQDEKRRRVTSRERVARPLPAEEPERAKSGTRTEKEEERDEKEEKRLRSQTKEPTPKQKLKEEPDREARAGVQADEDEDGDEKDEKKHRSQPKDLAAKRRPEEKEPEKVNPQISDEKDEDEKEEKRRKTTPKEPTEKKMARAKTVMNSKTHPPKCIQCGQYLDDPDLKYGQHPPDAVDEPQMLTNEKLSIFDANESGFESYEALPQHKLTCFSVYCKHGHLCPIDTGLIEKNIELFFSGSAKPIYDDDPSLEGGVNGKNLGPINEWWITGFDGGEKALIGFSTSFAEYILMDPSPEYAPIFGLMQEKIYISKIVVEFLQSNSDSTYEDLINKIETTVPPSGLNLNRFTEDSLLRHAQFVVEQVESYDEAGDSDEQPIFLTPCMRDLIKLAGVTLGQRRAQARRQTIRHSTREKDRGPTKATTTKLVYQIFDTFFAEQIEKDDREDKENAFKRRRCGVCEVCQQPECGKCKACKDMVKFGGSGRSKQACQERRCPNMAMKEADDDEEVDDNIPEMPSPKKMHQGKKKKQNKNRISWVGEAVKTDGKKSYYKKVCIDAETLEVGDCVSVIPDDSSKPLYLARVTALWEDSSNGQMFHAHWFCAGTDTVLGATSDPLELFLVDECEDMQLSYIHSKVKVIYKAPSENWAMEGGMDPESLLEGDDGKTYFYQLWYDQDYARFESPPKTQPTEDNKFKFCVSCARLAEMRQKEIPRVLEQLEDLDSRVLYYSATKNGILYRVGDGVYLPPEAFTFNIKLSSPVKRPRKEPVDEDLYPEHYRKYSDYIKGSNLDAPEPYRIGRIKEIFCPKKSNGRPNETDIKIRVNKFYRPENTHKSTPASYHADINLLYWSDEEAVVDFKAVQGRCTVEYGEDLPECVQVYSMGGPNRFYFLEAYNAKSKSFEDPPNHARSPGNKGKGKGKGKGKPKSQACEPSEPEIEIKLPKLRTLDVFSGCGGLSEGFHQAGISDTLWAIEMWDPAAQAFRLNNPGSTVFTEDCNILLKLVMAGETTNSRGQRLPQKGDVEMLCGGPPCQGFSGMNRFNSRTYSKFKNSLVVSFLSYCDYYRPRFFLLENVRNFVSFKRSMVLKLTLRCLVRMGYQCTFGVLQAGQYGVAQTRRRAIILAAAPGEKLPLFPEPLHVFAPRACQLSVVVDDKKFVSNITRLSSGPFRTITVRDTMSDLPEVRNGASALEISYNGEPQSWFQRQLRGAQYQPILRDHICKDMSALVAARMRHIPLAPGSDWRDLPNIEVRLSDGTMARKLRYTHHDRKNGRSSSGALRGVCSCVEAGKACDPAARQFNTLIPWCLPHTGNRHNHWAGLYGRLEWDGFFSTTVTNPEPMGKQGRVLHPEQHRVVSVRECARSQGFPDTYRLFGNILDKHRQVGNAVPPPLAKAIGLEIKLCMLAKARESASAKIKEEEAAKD

As to `NC(=O)c1cccc(NC(=O)/C=C/c2c[nH]c3ccccc23)c1` [RSC-133, 3-[3-(1H-indol-3-yl)-acrylamido]-benzamide], the “decrease of the ratio of SA-β-gal-positive cells” value in the data set on human skin fibroblasts [1] is recorded as 37.23%. Moreover, the “growth of cells, reprogramming not induced” value with human skin fibroblasts [2] (human skin fibroblasts or OSKM-transfected fibroblasts, reprogramming not induced (FIG. 12)) is given as “increased the growth of the cells”. In addition, in the data set on human skin fibroblasts [2] (reprogramming induced, compared to control group (FIG. 11)), the “increase of growth rate of the cells during reprogramming” value was “about 1.7 times”. The “reduction of the activity of DNMT1” value in data set [3] is “about 38%”. In addition, in the data set with human skin fibroblasts [4], the “cytotoxicity (MTT)” value was “did not induce cytotoxicity”. Further, the “H3K9ace level by Western blot” value in the data set on H3K9ace (H3 as internal control (FIG. 18 right)) is listed as “The same results were also obtained”. For the same compound, the “ratio of undifferentiated cells having a high H3K9ace level (immunocytochemistry)” value in the data set on H3K9ace (cultured 10 days in presence or absence of RSC-133 (FIG. 18 left)) is listed as “higher in the test group treated with RSC-133 than in the control group”. In addition, the “activity of total HDAC enzymes” value in the data set on total HDAC enzymes is on record as “slightly inhibited”. Besides, the “substitution for reprogramming factor c-Myc, compound alone” value in data set [5] (RSC-133 alone, AP-positive colonies (FIG. 5)) was “did not show the substituting effect”. Also, the “substitution for reprogramming factor c-Myc, in combination with sodium butyrate” value in data set [5] (RSC-133 in combination with sodium butyrate (NaB), compared to control group (FIG. 5)) is given as “substituted for c-Myc factor to increase the efficiency of reprogramming”. For the same compound, the “efficiency of reprogramming, treatment in the initial stage” value in data set [5] (initial stage (including 5 days after viral infection), compared to other periods of equal length (FIG. 10)) is reported as “significantly increased”.

The record behind these values is patent US9587225B2, “Low-molecular-compound for improving production, maintenance and proliferation of pluripotent stem cells, composition comprising the same, and culture method” (KOREA RESEARCH INSTITUTE OF BIOSCIENCE AND BIOTECHNOLOGY, priority 2012, dated 2017).
